The numbers were not newly measured in patent publication US12599555B2, “Formulation” (priority 2019, dated 2026), which cites them from elsewhere.

The conditions of the data set: administered by inhalation in the treatment of asthma.

With `O=C([O-])c1cc(=O)c2c(OCC(O)COc3cccc4oc(C(=O)[O-])cc(=O)c34)cccc2o1.[Na+].[Na+]` [sodium cromoglicate, disodium 5,5′-[(2-hydroxytrimethylene)dioxy]bis-[4-oxo-4H-1-benzopyran-2-carboxylate]], the bioavailability is 10-15%.
